Laboratory results published in BigSolDB 2.1.

Nc1nc(N)c2nc(-c3ccccc3)c(N)nc2n1
solubility (mole fraction)
Details	283.15 K	288.15 K	293.15 K	298.15 K	303.15 K	308.15 K	313.15 K	318.15 K	323.15 K
in 1,2-dichloroethane	1.72e-06	2.31e-06	3.52e-06	5.23e-06	7.52e-06	1.07e-05	1.7e-05	2.38e-05	3.55e-05
in 2-methoxyethanol	0.00188	0.00248	0.00338	0.00454	0.00605	0.00792	0.0106	0.014	0.0181
in DMSO	–	–	0.00201	0.00281	0.00381	0.00512	0.0068	0.00901	0.0118
in acetonitrile	2.52e-06	3.43e-06	5.17e-06	7.99e-06	1.16e-05	1.61e-05	2.43e-05	3.47e-05	4.99e-05
in ethyl acetate	2.91e-06	4.53e-06	7.32e-06	9.44e-06	1.42e-05	1.95e-05	2.8e-05	3.98e-05	6.09e-05
in isobutanol	2.88e-06	4.02e-06	6.12e-06	8.74e-06	1.23e-05	1.71e-05	2.55e-05	3.79e-05	5.43e-05
in isopropanol	2.02e-06	3.53e-06	4.92e-06	7.42e-06	1.06e-05	1.47e-05	2.08e-05	2.93e-05	4.19e-05
in methanol	2.91e-05	4.31e-05	6.36e-05	8.42e-05	0.000127	0.000169	0.00024	0.00032	0.000449
in n-butanol	3.32e-06	5.33e-06	8.08e-06	1.15e-05	1.61e-05	2.11e-05	3.11e-05	4.32e-05	6.48e-05
in n-methylformamide	0.000547	0.000726	0.00103	0.00143	0.00197	0.00264	0.00353	0.00461	0.00583
in n-propanol	4.24e-06	6.13e-06	9.12e-06	1.43e-05	2.02e-05	2.82e-05	3.88e-05	5.29e-05	7.03e-05
in water	1.07e-06	1.29e-06	1.51e-06	1.79e-06	2.16e-06	2.64e-06	3.13e-06	3.76e-06	4.61e-06
